The text below walks through data of article PMC6006164, “Natural cyclopeptide RA-V inhibits the NF-κB signaling pathway by targeting TAK1” (Cell Death & Disease, 2018).

Several values for one entry are separate records, joined by “and”; a condition that tells them apart may be missing. Identical values can stand only once. Bounds are passed on as bounds.

What is called IC50 is the midpoint of a concentration-inhibition curve.

The first experiment deals with NF-κB signaling pathway. Description: NF-κB-dependent luciferase reporter (5×κB-luciferase/pTK-Renilla), TNF-α-induced, HEK293T cells. The experiment is classed as cell-based. The settings on record: HEK293T screen, 24-well. On the procedure: HEK293T or HeLa cells were seeded in 24-well plates and transiently transfected with the 5 × κB-luciferase and pTK-Renilla reporters using Lipofectamine 2000 (Invitrogen) for 18 h. The cells were then incubated with different concentrations of the compounds for the indicated times and subsequently stimulated with 10 ng/mL TNF-α for 2 h. The luciferase activity in the cell lysates was analyzed using the Dual Luciferase Reporter Assay System (Promega). The luciferase reporter assays were performed as previously described.
Supplementary Figure 1. RA-V has the best inhibitory effect on NF-κB signaling pathway among RAs. (a-b) HEK293T cells were transfected with the 5×κB-luciferase and pTK-Renilla reporters. Twenty-four hours after transfection, the cells were incubated with various concentrations of the indicated compounds for 6 h and then treated with 10 ng/ml TNF-α for 2 h before the luciferase activity assays. The data are presented as the means ± S.D. from three independent experiments. […]
Scheme for CB12 synthesis. (c) CB12 inhibited NF-κB reporter activity in a dose-dependent manner. The HEK293T cells were transfected with the 5×κB-luciferase and pTK-Renilla reporters. Twenty-four h after transfection, the cells were treated with various concentrations of CB12 for 6 h and then treated with 10 ng/ml TNF-α for 2 h before the luciferase activity assays. (d) […]
Supplementary Table 3: Screening data of small molecules
Category Parameter Description
Assay Type of assay Cell-based
Target NF-κB signaling pathway
Primary measurement Detection of Firefly luciferase enzyme activities and Renilla Luciferase expression
Key reagents 5 × κB-lucieferase and luciferase assay (Progema)
Assay protocol HEK293T cells were seeded in 24 -well plates and transiently transfected with 20 ng of 5×κB-luciferase and 2 ng of pTK-Renilla reporters using Lipofectamine
2000 (Invitrogen) for 18 h. The cells were then incubated with small molecules (10 μM) for 6 hours, and subsequently stimulated with 10 ng/ml TNF -α for 2 h. Luciferase activity of the cell lysates was analysed by the Dual Luciferase Reported Assay System
(Promega). The Firefly luciferase enzyme activities were determined for NF -κB signaling activities and normalized to Renilla Luciferase expression.
Library Library size approximately 200
Library composition natural and synthetic chemical compounds, including cyclopeptides, quinones and terpenes.
Source State Key Laboratory of Phytochemistry and Plant
Resources in West China, Kunming Institute of Botany, Chinese Academy of Sciences
Screen Format 24-well, Corning
Concentration(s) tested 10 μM
Reagent/ compound dispensing system Manual
Detection instrument and software Synergy 2 (BioTek)
Assay validation/QC Velcade inhibits NF-κB signaling pathway
Normalization The Firefly luciferase enzyme activities were normalized by Renilla Luciferase expression
Post-HTS analysis Hit criteria κB-luc/ Renilla ratio < 0.5 standard deviations from the […]
Hit rate Approximately 15%
Confirmation of hit purity and structure Compounds were verified by HPLC and NMR
With `CC(C)C[C@H](NC(=O)[C@H](Cc1ccccc1)NC(=O)c1cnccn1)B(O)O` [Velcade, Bortezomib, reference compound], the “NF-κB signaling pathway (plate control, assay validation)” value is “inhibits”.

The same experiment, now with this note: HEK293T; compounds 6 h, then 10 ng/ml TNF-α 2 h; means of three independent experiments; read-out: IC50 (μM), NF-κB reporter activity.
Regarding RA-III, the IC50 turned out to be 1.1 µM.
In the case of Rubiyunnanin D, the IC50 is over 15 µM.
Turning to RA-I, the IC50 was found to be 1.31 µM.
In the case of Rubicordifolin A, the half-maximal inhibitory concentration (IC50) was 3.41 µM.
For C-6β-oxy-RA-IV, the IC50 was determined as 2.06 µM.
Take Rubiyunnanin C: the IC50 was over 15 µM.
As for RA-XIII-OMe, the concentration for half-maximal inhibition (IC50) was over 15 µM.
Consider RA-XII, for which the IC50 was found to be 1.85 µM.
With RA-XI isoform 2, the IC50 was over 15 µM.
For RA-XI isoform 1, the IC50 is over 15 µM.
For RA-IV, the IC50 came to 10.6 µM.
O-seco-RA-V: the IC50 was over 15 µM.
As for RY-II, the IC50 is > 15 µM and 19 µM.
Turning to Rubiyunnanin I, the IC50 was over 15 µM.
RA-XIII: the IC50 is over 15 µM.
For the compound Rubiaschumanin A, the IC50 is over 15 µM.
Consider Rubiyunnanin F, for which the IC50 was over 15 µM.
As for Rubiyunnanin A, the IC50 is over 15 µM.
On to Rubiaschumanin C, for which the IC50 was over 15 µM.
Rubiyunnanin E: the IC50 is over 15 µM.
For Rubiyunnanin H, the IC50 is over 15 µM.
Take Rubiyunnanin G: the IC50 was over 15 µM.
With Rubicordifolin C, the IC50 came to 6.87 µM.
As for RA-XXIV, the IC50 was determined as 11.9 µM.
On the same count and under the same terms, the same measure for Rubiaschumanin B: 3.88 µM; for Rubiyunnanin B: > 15 µM and 15.1 µM.
Turning to RA-VII, the IC50 amounted to 0.089 µM.

For a further experiment, the target named is T1, TAK1 (Homo sapiens, UniProt O43318).
T1 construct: expressed in transfected cells; host or cells: HEK293T
T1 sequence (O43318 1-579 isoform O43318-2): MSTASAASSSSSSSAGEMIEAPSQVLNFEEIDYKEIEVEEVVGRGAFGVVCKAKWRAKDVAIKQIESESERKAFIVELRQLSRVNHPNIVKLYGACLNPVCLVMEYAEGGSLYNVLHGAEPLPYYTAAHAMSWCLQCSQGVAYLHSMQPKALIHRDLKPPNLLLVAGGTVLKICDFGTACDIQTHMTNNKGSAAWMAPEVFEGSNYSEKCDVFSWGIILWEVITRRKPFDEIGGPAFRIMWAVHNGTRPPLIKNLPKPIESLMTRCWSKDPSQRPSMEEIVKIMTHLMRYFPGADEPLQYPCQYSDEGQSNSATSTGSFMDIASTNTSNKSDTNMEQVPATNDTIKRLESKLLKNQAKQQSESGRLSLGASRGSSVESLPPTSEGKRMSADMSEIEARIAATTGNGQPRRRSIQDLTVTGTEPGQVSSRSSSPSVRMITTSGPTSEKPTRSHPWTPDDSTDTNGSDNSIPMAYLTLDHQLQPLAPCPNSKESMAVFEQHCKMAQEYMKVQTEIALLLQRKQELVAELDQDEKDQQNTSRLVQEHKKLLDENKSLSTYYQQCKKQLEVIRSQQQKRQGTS
Kind of experiment: Streptavidin agarose pull-down with biotin-tagged probe CB12. The experiment is classed as binding. To be noted: lysates of HEK293T transfected with TAK1; RA-V in 10-fold excess.
Protocol: HEK293T cells were transfected with TAK1 for 24 h, then the cell lysates were incubated with biotin or CB12 followed by streptavidin agarose pull-down. […] HEK293T cells were transfected with the indicated plasmids for 24 h. The cell lysates were pulled down with streptavidin agarose and then immunoblotted with HA or Flag antibody. Each experiment was repeated at least three times
HEK293T cells were transfected with TAK1-N or TAK1-C for 24 h. The cells lysates were incubated with CB12 or biotin and precipitated with streptavidin-coated sepharose and were analyzed by immunoblotting with Flag antibody. b The model for RA-V binding to the crystal structure of the TAK1–TAB1 fusion protein (PDB 4GS6). […] HEK293T cells were transfected with TAK1 for 24 h, and then the cell lysates were incubated with biotin or CB12 before precipitation with streptavidin agarose. […] HeLa cells were incubated with various concentrations of RA-V for 12 h and then treated with 10 ng/mL TNF-α for 10 min. The cell lysates were prepared and western blotted with the indicated antibodies. Each experiment was repeated at least three times
HEK293T cells were harvested and lysed in RIPA buffer with protease inhibitors. […] The samples were separated by SDS-PAGE, and the bound proteins were detected using the indicated antibodies.
In the case of `COc1cc(O)c2c(c1)/C=C/C[C@H](O)[C@H](O)C(=O)/C=C\C[C@H](C)OC2=O` [(5Z)-7-Oxozeaenol, reference compound], the “competition with the CB12–TAK1 interaction (pull-down)” value is listed as “effectively competed”.
